One experiment addresses human FLAP (Homo sapiens (Human), UniProt P20292). Briefly: FLAP binding assay (HTRF). The conditions noted are these: human FLAP-containing membranes, HTRF format; average of two assay plates, duplicates; read-out: FLAP Binding wild type HTRF Ki. An outline of the steps: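 Reported data take the mean of two different plates carrying duplicate samples and use the HTRF ratio as the measured signal.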
(In TR-FRET formats the signal depends on donor and acceptor labels being close together.)

The subject of experiment [1] is leukotriene pathway in human whole blood (LTB4 levels). Kind of experiment: Human whole blood assay (LTB4). It counts as cell-based. The conditions noted are these: human whole blood diluted 1:1 in RPMI, stimulated with calcium ionophore A23187; single replicate. The method in brief:
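Single-replicate data from at least one healthy donor: compound pre-incubated 15 min at 37° Celsius in 1:1 RPMI-diluted heparinised blood, followed by 30 min calcium ionophore A23187 (7 μg/mL) challenge at 37° Celsius. LTB4 in plasma quantified by kit; IC50 via 4-parameter equation.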

The values that follow come from patent US9073876B2, “Flap modulators” (JANSSEN PHARMACEUTICA NV, priority 2013, dated 2015).

A value given as a limit tells only on which side of the number the result lay.

Chain of human FLAP (P20292 whole entry): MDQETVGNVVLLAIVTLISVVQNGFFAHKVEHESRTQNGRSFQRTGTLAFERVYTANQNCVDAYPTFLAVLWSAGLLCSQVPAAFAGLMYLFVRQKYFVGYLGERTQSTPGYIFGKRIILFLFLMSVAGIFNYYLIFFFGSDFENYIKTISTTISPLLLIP

With `CC(C)(C)c1ccc(-c2cnc(N)nc2)c(F)c1Oc1cc(N)ncn1` [Example 208, 5-{3-[(6-Aminopyrimidin-4-yl)oxy]-4-tert-butyl-2-fluorophenyl}pyrimidin-2-amine], the inhibition constant (Ki) (usually the equilibrium dissociation constant of an inhibitor or competing ligand from its target) on human FLAP is 46.5 nM. For the same molecule, the IC50 (commonly the concentration that inhibits the measured activity by half) in experiment [1] stood at 215 nM.
For `CC(C)(C)c1ccc(-c2cnc(N)nc2)c(F)c1Oc1nccc(N)n1` [Example 209, 5-{3-[(4-Aminopyrimidin-2-yl)oxy]-4-tert-butyl-2-fluorophenyl}pyrimidin-2-amine] the same measures were 23.3 nM and 51.1 nM.
`Nc1cnc(-c2ccc(C3CCCC3)c(OCc3ccccc3)c2F)cn1` [Example 212, 5-[3-(Benzyloxy)-4-cyclopentyl-2-fluorophenyl]pyrazin-2-amine]: the Ki at human FLAP amounted to 64 nM. In addition, the half-maximal inhibitory concentration (IC50) in experiment [1] is 1100 nM.
As for `CC(C)Oc1c(C2CCCC2)ccc(-c2cnc(N)cn2)c1F` [Example 213, 5-[4-Cyclopentyl-2-fluoro-3-(1-methylethoxy)phenyl]pyrazin-2-amine], the Ki on human FLAP amounted to 92.1 nM. Moreover, in experiment [1], the half-maximal inhibitory concentration (IC50) came out at 1010 nM.
As to `Fc1c(-c2cnc3[nH]ccc3n2)ccc(C2CCCC2)c1OCc1ccccc1` [Example 214, 2-[3-(Benzyloxy)-4-cyclopentyl-2-fluorophenyl]-5H-pyrrolo[2,3-b]pyrazine], at human FLAP, the Ki was determined as 30.8 nM. In addition, the half-inhibitory concentration (IC50) in experiment [1] worked out at 1090 nM.
In the same order, the values of `COc1c(C2CCC2)ccc(-c2cnc(N)c(C#N)n2)c1F` [Example 218, 3-amino-6-(4-cyclobutyl-2-fluoro-3-methoxyphenyl)-pyrazine-2-carbonitrile] are 77.3 nM and over 5000 nM.
For `Oc1c(C2CCC2)ccc(-c2cnc3[nH]ccc3c2)c1F` [Example 220, 6-cyclobutyl-2-fluoro-3-(1H-pyrrolo[2,3-b]pyridin-5-yl)phenol] the same measures were 21.8 nM and 1120 nM.
In the same order, the values of `Nc1cnc(-c2ccc(C3CCC3)c(Oc3ccnc(Oc4c(C5CCC5)ccc(-c5cnc(N)cn5)c4F)n3)c2F)cn1` [Example 224, 5,5′-((pyrimidine-2,4-diylbis(oxy))bis(4-cyclobutyl-2-fluoro-3,1-phenylene))bis(pyrazin-2-amine)] are 23.2 nM and 287 nM.
Take `Fc1c(-c2cnc3c(c2)OCCN3)ccc(C2CCC2)c1Oc1ncccn1` [Example 225, 7-(4-cyclobutyl-2-fluoro-3-(pyrimidin-2-yloxy)phenyl)-3,4-dihydro-2H-pyrido[3,2-b][1,4]oxazine]: the Ki on human FLAP turned out to be 2.5 nM. The concentration for half-maximal inhibition (IC50) in experiment [1] turned out to be 68.4 nM.
In the same order, the values of `Nc1ccnc(Oc2c(C3CCC3)ccc(-c3cnc4c(c3)OCCN4)c2F)n1` [Example 226, 2-(6-cyclobutyl-3-(3,4-dihydro-2H-pyrido[3,2-b][1,4]oxazin-7-yl)-2-fluorophenoxy)pyrimidin-4-amine] are 1.4 nM and 90.1 nM.
For `COc1cc(Oc2c(C3CCC3)ccc(-c3cnc4c(c3)OCCN4)c2F)ncn1` [Example 227, 7-(4-cyclobutyl-2-fluoro-3-((6-methoxypyrimidin-4-yl)oxy)phenyl)-3,4-dihydro-2H-pyrido[3,2-b][1,4]oxazine] the same measures were 8.5 nM and 332 nM.
In the same order, the values of `COc1cc(Oc2c(C3CCC3)ccc(-c3cnc4[nH]ccc4n3)c2F)ncn1` [Example 229, 2-(4-cyclobutyl-2-fluoro-3-((6-methoxypyrimidin-4-yl)oxy)phenyl)-5H-pyrrolo[2,3-b]pyrazine] are 7.7 nM and 408 nM.
For the molecule `Fc1c(-c2cnc3[nH]ccc3n2)ccc(C2CCC2)c1Oc1ncccn1` [Example 230, 2-(4-cyclobutyl-2-fluoro-3-(pyrimidin-2-yloxy)phenyl)-5H-pyrrolo[2,3-b]pyrazine], at human FLAP, the inhibitory constant (Ki) was determined as 2.5 nM. Also, in experiment [1], the half-maximal inhibitory concentration (IC50) is 238 nM.
On to `N#Cc1nccc(Oc2c(C3CCC3)ccc(-c3cnc(N)cn3)c2F)n1` [Example 234, 4-(3-(5-Aminopyrazin-2-yl)-6-cyclobutyl-2-fluorophenoxy)pyrimidine-2-carbonitrile], for which the Ki at human FLAP was 1300 nM. In addition, in experiment [1], the half-inhibitory concentration (IC50) was over 10000 nM.
With `Cc1nc(Oc2c(C3CCC3)ccc(-c3cnc(N)cn3)c2F)cc(N(C)C)n1` [Example 235, 6-(3-(5-Aminopyrazin-2-yl)-6-cyclobutyl-2-fluorophenoxy)-N,N,2-trimethylpyrimidin-4-amine], the Ki on human FLAP was found to be 3.3 nM. In experiment [1], the IC50 turned out to be 113 nM.
In the same order, the values of `Cc1cc(Oc2c(C3CCC3)ccc(-c3cnc(N)cn3)c2F)nc(N(C)C)n1` [Example 236, 4-(3-(5-Aminopyrazin-2-yl)-6-cyclobutyl-2-fluorophenoxy)-N,N,6-trimethylpyrimidin-2-amine] are 2.2 nM and 37.1 nM.
`CN(C)c1cc(Oc2c(C3CCC3)ccc(-c3cnc(N)cn3)c2F)ncn1` [Example 237, 6-(3-(5-Aminopyrazin-2-yl)-6-cyclobutyl-2-fluorophenoxy)-N,N-dimethylpyrimidin-4-amine]: the inhibitory constant (Ki) on human FLAP turned out to be 3.3 nM. For the same molecule, the IC50 in experiment [1] is 84.7 nM.
With `CCOC(=O)c1c(C(F)(F)F)nn(C)c1Oc1c(C2CCC2)ccc(-c2cnc(N)cn2)c1F` [Example 238, Ethyl 5-(3-(5-aminopyrazin-2-yl)-6-cyclobutyl-2-fluorophenoxy)-1-methyl-3-(trifluoromethyl)-1H-pyrazole-4-carboxylate], the Ki on human FLAP is 155 nM. Moreover, the IC50 in experiment [1] was determined as 571 nM.
In the same order, the values of `CS(=O)(=O)c1ccc(Oc2c(C3CCC3)ccc(-c3cnc(N)cn3)c2F)nc1` [Example 239, 5-(4-cyclobutyl-2-fluoro-3-((5-(methylsulfonyl)pyridin-2-yl)oxy)phenyl)pyrazin-2-amine] are 8.3 nM and 197 nM.
In the same order, the values of `CC(C)(C)c1cc(Oc2c(C3CCC3)ccc(-c3cnc(N)cn3)c2F)nc(N)n1` [Example 240, 4-(3-(5-aminopyrazin-2-yl)-6-cyclobutyl-2-fluorophenoxy)-6-(tert-butyl)pyrimidin-2-amine] are 23.6 nM and 104 nM.
In the same order, the values of `Nc1cnc(-c2ccc(C3CCC3)c(Oc3nccc(N4CCC5(CC4)OCCCO5)n3)c2F)cn1` [Example 241, 5-(3-((4-(1,5-dioxa-9-azaspiro[5.5]undecan-9-yl)pyrimidin-2-yl)oxy)-4-cyclobutyl-2-fluorophenyl)pyrazin-2-amine] are 1.2 nM and 20.7 nM.
Turning to `CC(C)Cc1cc(Oc2c(C3CCC3)ccc(-c3cnc(N)cn3)c2F)nc(N)n1` [Example 242, 4-(3-(5-aminopyrazin-2-yl)-6-cyclobutyl-2-fluorophenoxy)-6-isobutylpyrimidin-2-amine], the inhibition constant Ki on human FLAP is 3.6 nM. For the same molecule, the IC50 in experiment [1] was determined as 30 nM.
In the same order, the values of `CS(=O)(=O)NCCOc1c(C2CCC2)ccc(-c2cnc(N)cn2)c1F` [Example 243, N-(2-(3-(5-Aminopyrazin-2-yl)-6-cyclobutyl-2-fluorophenoxy)-ethyl)-methane-sulfonamide] are 236 nM and 859 nM.
In the case of `Nc1cnc(-c2ccc(C3CCC3)c(OCCN3CCOCC3)c2F)cn1` [Example 244, 5-(4-Cyclobutyl-2-fluoro-3-(2-morpholinoethoxy)phenyl)pyrazin-2-amine], on human FLAP, the Ki turned out to be 462 nM. In addition, the IC50 in experiment [1] is 1820 nM.
For `CCOC(=O)CCCOc1c(C2CCC2)ccc(-c2cnc(N)cn2)c1F` [Example 245, Ethyl 4-(3-(5-aminopyrazin-2-yl)-6-cyclobutyl-2-fluorophenoxy)butanoate] the same measures were 62.2 nM and 2800 nM.
For `CC(C)(C)OC(=O)N1CC(COc2c(C3CCC3)ccc(-c3cnc(N)cn3)c2F)C1` [Example 246, tert-butyl-3-((3-(5-aminopyrazin-2-yl)-6-cyclobutyl-2-fluorophenoxy)-methyl)azetidine-1-carboxylate] the same measures were 98.6 nM and 1590 nM.
Regarding `CC(C)(C)OC(=O)N1CCCC1COc1c(C2CCC2)ccc(-c2cnc(N)cn2)c1F` (stereo not drawn) [Example 248, tert-butyl 2-((3-(5-aminopyrazin-2-yl)-6-cyclobutyl-2-fluorophenoxy)methyl)pyrrolidine-1-carboxylate], the Ki on human FLAP stood at 261 nM. Further, in experiment [1], the IC50 was determined as 10000 nM.
In the same order, the values of `CC(C)(C)OC(=O)N1CCCC(COc2c(C3CCC3)ccc(-c3cnc(N)cn3)c2F)C1` (stereo not drawn) [Example 249, tert-Butyl 3-((3-(5-aminopyrazin-2-yl)-6-cyclobutyl-2-fluorophenoxy)methyl)piperidine-1-carboxylate] are 208 nM and 1260 nM.
For the molecule `Nc1cnc(-c2ccc(C3CCC3)c(OCCO)c2F)cn1` [Example 250, 2-(3-(5-Aminopyrazin-2-yl)-6-cyclobutyl-2-fluorophenoxy)ethanol], the Ki at human FLAP amounted to 99.2 nM. Moreover, the half-maximal inhibitory concentration (IC50) in experiment [1] came to 357 nM.
`Nc1cnc(-c2ccc(C3CCC3)c(OCC3CCCO3)c2F)cn1` (stereo not drawn) [Example 252, 5-(4-Cyclobutyl-2-fluoro-3-((tetrahydrofuran-2-yl)methoxy)phenyl)pyrazin-2-amine]: the Ki at human FLAP is 29.6 nM. The IC50 in experiment [1] is over 1000 nM.
For `Nc1cnc(-c2ccc(C3CCC3)c(Oc3ccnnc3)c2F)cn1` [Example 257, 5-(4-Cyclobutyl-2-fluoro-3-(pyridazin-4-yloxy)phenyl)pyrazin-2-amine] the same measures were 31.1 nM and 332 nM.
In the same order, the values of `Nc1cnc(-c2ccc(C3CCC3)c(Oc3nccnc3N)c2F)cn1` [Example 258, 3-(3-(5-Aminopyrazin-2-yl)-6-cyclobutyl-2-fluorophenoxy)pyrazin-2-amine] are 3.8 nM and 10.1 nM.
`Nc1cnc(-c2ccc(C3CCC3)c(Oc3cnccn3)c2F)cn1` [Example 259, 5-(4-Cyclobutyl-2-fluoro-3-(pyrazin-2-yloxy)phenyl)pyrazin-2-amine]: the Ki at human FLAP was 7 nM. The IC50 in experiment [1] worked out at 134 nM.
